From the supplement of paper PMC10307832

Legend:
Assay in all cases: relative viability (nuclei count vs DMSO), 5 days (fraction); higher = more cells survive
Pazopanib + Palbociclib = compound: Cc1ccc(Nc2nccc(N(C)c3ccc4c(C)n(C)nc4c3)n2)cc1S(N)(=O)=O [Pazopanib] + CC(=O)c1c(C)c2cnc(Nc3ccc(N4CCNCC4)cn3)nc2n(C2CCCC2)c1=O [Palbociclib] (partner 0.5 µM)
Summary of the method: (§1)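 A single step with final 0.05% Triton X-100, 1% formaldehyde and 1 ug/ml Hoechst fixed the cells and stained nuclei 5 days after treatment. Lung cancer cell lines in 1536-well plates had been treated by pin tool the day after seeding with one drug alone or a fixed anchor-drug dose plus five library-drug doses (not always all listed) in √10 steps, and nuclei were counted on 4× images. Relative viability is the ratio of nuclei in treated wells to nuclei in vehicle wells, taken as the median of duplicate plates.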

Ponatinib + Tozasertib = compound: Cc1ccc(C(=O)Nc2ccc(CN3CCN(C)CC3)c(C(F)(F)F)c2)cc1C#Cc1cnc2cccnn12 [Ponatinib] + Cc1cc(Nc2cc(N3CCN(C)CC3)nc(Sc3ccc(NC(=O)C4CC4)cc3)n2)n[nH]1 [Tozasertib] (partner 0.1 µM)
Summary of the method: as §1

Pazopanib + Navitoclax = compound: Cc1ccc(Nc2nccc(N(C)c3ccc4c(C)n(C)nc4c3)n2)cc1S(N)(=O)=O [Pazopanib] + CC1(C)CCC(c2ccc(Cl)cc2)=C(CN2CCN(c3ccc(C(=O)NS(=O)(=O)c4ccc(N[C@H](CCN5CCOCC5)CSc5ccccc5)c(S(=O)(=O)C(F)(F)F)c4)cc3)CC2)C1 [Navitoclax] (partner 0.5 µM)
Summary of the method: as §1

Pazopanib + Linsitinib = compound: Cc1ccc(Nc2nccc(N(C)c3ccc4c(C)n(C)nc4c3)n2)cc1S(N)(=O)=O [Pazopanib] + C[C@]1(O)C[C@@H](c2nc(-c3ccc4ccc(-c5ccccc5)nc4c3)c3c(N)nccn32)C1 [Linsitinib] (partner 1 µM)
Summary of the method: as §1

Cell Line: NCI-H2347
- relative viability (Pazopanib + Palbociclib; first compound 0.01 µM): 0.422
- relative viability (Pazopanib + Palbociclib; first compound 0.03162 µM): 0.452
- relative viability (Pazopanib + Palbociclib; first compound 0.1 µM): 0.406
- relative viability (Pazopanib + Palbociclib; first compound 0.3162 µM): 0.449
- relative viability (Pazopanib + Palbociclib; first compound 1 µM): 0.498
- relative viability (Ponatinib + Tozasertib; first compound 0.002 µM): 0.473
- relative viability (Ponatinib + Tozasertib; first compound 0.006325 µM): 0.669
- relative viability (Ponatinib + Tozasertib; first compound 0.06325 µM): 0.417
- relative viability (Ponatinib + Tozasertib; first compound 0.2 µM): 0.51
- relative viability (Pazopanib + Navitoclax; first compound 0.01 µM): 0.722
- relative viability (Pazopanib + Navitoclax; first compound 0.03162 µM): 0.805
- relative viability (Pazopanib + Navitoclax; first compound 0.1 µM): 0.836
- relative viability (Pazopanib + Navitoclax; first compound 0.3162 µM): 0.842
- relative viability (Pazopanib + Navitoclax; first compound 1 µM): 0.858
- relative viability (Pazopanib + Linsitinib; first compound 0.01 µM): 0.854
- relative viability (Pazopanib + Linsitinib; first compound 0.03162 µM): 1.01
- relative viability (Pazopanib + Linsitinib; first compound 0.1 µM): 1.1
- relative viability (Pazopanib + Linsitinib; first compound 0.3162 µM): 1.09
- relative viability (Pazopanib + Linsitinib; first compound 1 µM): 1.12

Cell Line: COR-L23
- relative viability (Pazopanib + Palbociclib; first compound 0.01 µM): 0.297
- relative viability (Pazopanib + Palbociclib; first compound 0.03162 µM): 0.323
- relative viability (Pazopanib + Palbociclib; first compound 0.1 µM): 0.353
- relative viability (Pazopanib + Palbociclib; first compound 0.3162 µM): 0.316
- relative viability (Pazopanib + Palbociclib; first compound 1 µM): 0.317
- relative viability (Ponatinib + Tozasertib; first compound 0.002 µM): 0.209
- relative viability (Ponatinib + Tozasertib; first compound 0.006325 µM): 0.213
- relative viability (Ponatinib + Tozasertib; first compound 0.06325 µM): 0.171
- relative viability (Ponatinib + Tozasertib; first compound 0.2 µM): 0.142
- relative viability (Pazopanib + Navitoclax; first compound 0.01 µM): 0.971
- relative viability (Pazopanib + Navitoclax; first compound 0.03162 µM): 1.08
- relative viability (Pazopanib + Navitoclax; first compound 0.1 µM): 0.985
- relative viability (Pazopanib + Navitoclax; first compound 0.3162 µM): 0.978
- relative viability (Pazopanib + Navitoclax; first compound 1 µM): 1.06
- relative viability (Pazopanib + Linsitinib; first compound 0.01 µM): 1.02
- relative viability (Pazopanib + Linsitinib; first compound 0.03162 µM): 1.01
- relative viability (Pazopanib + Linsitinib; first compound 0.1 µM): 0.988
- relative viability (Pazopanib + Linsitinib; first compound 0.3162 µM): 1.15
- relative viability (Pazopanib + Linsitinib; first compound 1 µM): 0.975

Cell Line: NCI-H2087
- relative viability (Pazopanib + Palbociclib; first compound 0.01 µM): 0.21
- relative viability (Pazopanib + Palbociclib; first compound 0.03162 µM): 0.223
- relative viability (Pazopanib + Palbociclib; first compound 0.1 µM): 0.275
- relative viability (Pazopanib + Palbociclib; first compound 0.3162 µM): 0.271
- relative viability (Pazopanib + Palbociclib; first compound 1 µM): 0.256
- relative viability (Ponatinib + Tozasertib; first compound 0.002 µM): 0.259
- relative viability (Ponatinib + Tozasertib; first compound 0.006325 µM): 0.237
- relative viability (Ponatinib + Tozasertib; first compound 0.06325 µM): 0.21
- relative viability (Ponatinib + Tozasertib; first compound 0.2 µM): 0.155
- relative viability (Pazopanib + Navitoclax; first compound 0.01 µM): 1.03
- relative viability (Pazopanib + Navitoclax; first compound 0.03162 µM): 1.04
- relative viability (Pazopanib + Navitoclax; first compound 0.1 µM): 1.1
- relative viability (Pazopanib + Navitoclax; first compound 0.3162 µM): 1.01
- relative viability (Pazopanib + Navitoclax; first compound 1 µM): 0.8
- relative viability (Pazopanib + Linsitinib; first compound 0.01 µM): 1.02
- relative viability (Pazopanib + Linsitinib; first compound 0.03162 µM): 0.967
- relative viability (Pazopanib + Linsitinib; first compound 0.1 µM): 1.13
- relative viability (Pazopanib + Linsitinib; first compound 0.3162 µM): 0.841
- relative viability (Pazopanib + Linsitinib; first compound 1 µM): 0.895

Cell Line: LC-2-ad
- relative viability (Pazopanib + Palbociclib; first compound 0.01 µM): 0.552
- relative viability (Pazopanib + Palbociclib; first compound 0.03162 µM): 0.459
- relative viability (Pazopanib + Palbociclib; first compound 0.1 µM): 0.56
- relative viability (Pazopanib + Palbociclib; first compound 0.3162 µM): 0.45
- relative viability (Pazopanib + Palbociclib; first compound 1 µM): 0.487
- relative viability (Ponatinib + Tozasertib; first compound 0.002 µM): 0.458
- relative viability (Ponatinib + Tozasertib; first compound 0.006325 µM): 0.455
- relative viability (Ponatinib + Tozasertib; first compound 0.06325 µM): 0.431
- relative viability (Ponatinib + Tozasertib; first compound 0.2 µM): 0.397
- relative viability (Pazopanib + Navitoclax; first compound 0.01 µM): 0.411
- relative viability (Pazopanib + Navitoclax; first compound 0.03162 µM): 0.48
- relative viability (Pazopanib + Navitoclax; first compound 0.1 µM): 0.588
- relative viability (Pazopanib + Navitoclax; first compound 0.3162 µM): 0.485
- relative viability (Pazopanib + Navitoclax; first compound 1 µM): 0.335
- relative viability (Pazopanib + Linsitinib; first compound 0.01 µM): 0.813
- relative viability (Pazopanib + Linsitinib; first compound 0.03162 µM): 0.778
- relative viability (Pazopanib + Linsitinib; first compound 0.1 µM): 0.868
- relative viability (Pazopanib + Linsitinib; first compound 0.3162 µM): 0.8
- relative viability (Pazopanib + Linsitinib; first compound 1 µM): 0.842

Cell Line: NCI-H1915
- relative viability (Pazopanib + Palbociclib; first compound 0.01 µM): 0.508
- relative viability (Pazopanib + Palbociclib; first compound 0.03162 µM): 0.525
- relative viability (Pazopanib + Palbociclib; first compound 0.1 µM): 0.524
- relative viability (Pazopanib + Palbociclib; first compound 0.3162 µM): 0.541
- relative viability (Pazopanib + Palbociclib; first compound 1 µM): 0.536
- relative viability (Ponatinib + Tozasertib; first compound 0.002 µM): 0.396
- relative viability (Ponatinib + Tozasertib; first compound 0.006325 µM): 0.487
- relative viability (Ponatinib + Tozasertib; first compound 0.06325 µM): 0.313
- relative viability (Ponatinib + Tozasertib; first compound 0.2 µM): 0.366
- relative viability (Pazopanib + Navitoclax; first compound 0.01 µM): 0.821
- relative viability (Pazopanib + Navitoclax; first compound 0.03162 µM): 0.782
- relative viability (Pazopanib + Navitoclax; first compound 0.1 µM): 0.78
- relative viability (Pazopanib + Navitoclax; first compound 0.3162 µM): 0.768
- relative viability (Pazopanib + Navitoclax; first compound 1 µM): 0.729
- relative viability (Pazopanib + Linsitinib; first compound 0.01 µM): 1.12
- relative viability (Pazopanib + Linsitinib; first compound 0.03162 µM): 1.14
- relative viability (Pazopanib + Linsitinib; first compound 0.1 µM): 1.08
- relative viability (Pazopanib + Linsitinib; first compound 0.3162 µM): 1.03
- relative viability (Pazopanib + Linsitinib; first compound 1 µM): 0.994

Cell Line: NCI-H1944
- relative viability (Pazopanib + Palbociclib; first compound 0.01 µM): 0.287
- relative viability (Pazopanib + Palbociclib; first compound 0.03162 µM): 0.357
- relative viability (Pazopanib + Palbociclib; first compound 0.1 µM): 0.33
- relative viability (Pazopanib + Palbociclib; first compound 0.3162 µM): 0.332
- relative viability (Pazopanib + Palbociclib; first compound 1 µM): 0.41
- relative viability (Ponatinib + Tozasertib; first compound 0.002 µM): 0.24
- relative viability (Ponatinib + Tozasertib; first compound 0.006325 µM): 0.246
- relative viability (Ponatinib + Tozasertib; first compound 0.06325 µM): 0.247
- relative viability (Ponatinib + Tozasertib; first compound 0.2 µM): 0.255
- relative viability (Pazopanib + Navitoclax; first compound 0.01 µM): 0.942
- relative viability (Pazopanib + Navitoclax; first compound 0.03162 µM): 0.997
- relative viability (Pazopanib + Navitoclax; first compound 0.1 µM): 1.09
- relative viability (Pazopanib + Navitoclax; first compound 0.3162 µM): 1.05
- relative viability (Pazopanib + Navitoclax; first compound 1 µM): 1.08
- relative viability (Pazopanib + Linsitinib; first compound 0.01 µM): 1.08
- relative viability (Pazopanib + Linsitinib; first compound 0.03162 µM): 1.28
- relative viability (Pazopanib + Linsitinib; first compound 0.1 µM): 1.15
- relative viability (Pazopanib + Linsitinib; first compound 0.3162 µM): 1.24
- relative viability (Pazopanib + Linsitinib; first compound 1 µM): 1.32

Cell Line: NCI-H2023
- relative viability (Pazopanib + Palbociclib; first compound 0.01 µM): 0.36
- relative viability (Pazopanib + Palbociclib; first compound 0.03162 µM): 0.412
- relative viability (Pazopanib + Palbociclib; first compound 0.1 µM): 0.456
- relative viability (Pazopanib + Palbociclib; first compound 0.3162 µM): 0.38
- relative viability (Pazopanib + Palbociclib; first compound 1 µM): 0.434
- relative viability (Ponatinib + Tozasertib; first compound 0.002 µM): 0.381
- relative viability (Ponatinib + Tozasertib; first compound 0.006325 µM): 0.336
- relative viability (Ponatinib + Tozasertib; first compound 0.06325 µM): 0.246
- relative viability (Ponatinib + Tozasertib; first compound 0.2 µM): 0.194
- relative viability (Pazopanib + Navitoclax; first compound 0.01 µM): 0.972
- relative viability (Pazopanib + Navitoclax; first compound 0.03162 µM): 1
- relative viability (Pazopanib + Navitoclax; first compound 0.1 µM): 0.98
- relative viability (Pazopanib + Navitoclax; first compound 0.3162 µM): 1.01
- relative viability (Pazopanib + Navitoclax; first compound 1 µM): 1.01
- relative viability (Pazopanib + Linsitinib; first compound 0.01 µM): 0.699
- relative viability (Pazopanib + Linsitinib; first compound 0.03162 µM): 0.637
- relative viability (Pazopanib + Linsitinib; first compound 0.1 µM): 0.863
- relative viability (Pazopanib + Linsitinib; first compound 0.3162 µM): 0.623
- relative viability (Pazopanib + Linsitinib; first compound 1 µM): 0.682

Cell Line: COR-L 105
- relative viability (Pazopanib + Palbociclib; first compound 0.01 µM): 0.364
- relative viability (Pazopanib + Palbociclib; first compound 0.03162 µM): 0.363
- relative viability (Pazopanib + Palbociclib; first compound 0.1 µM): 0.413
- relative viability (Pazopanib + Palbociclib; first compound 0.3162 µM): 0.437
- relative viability (Pazopanib + Palbociclib; first compound 1 µM): 0.438
- relative viability (Ponatinib + Tozasertib; first compound 0.002 µM): 0.304
- relative viability (Ponatinib + Tozasertib; first compound 0.006325 µM): 0.343
- relative viability (Ponatinib + Tozasertib; first compound 0.06325 µM): 0.372
- relative viability (Ponatinib + Tozasertib; first compound 0.2 µM): 0.316
- relative viability (Pazopanib + Navitoclax; first compound 0.01 µM): 0.891
- relative viability (Pazopanib + Navitoclax; first compound 0.03162 µM): 0.698
- relative viability (Pazopanib + Navitoclax; first compound 0.1 µM): 0.787
- relative viability (Pazopanib + Navitoclax; first compound 0.3162 µM): 0.732
- relative viability (Pazopanib + Navitoclax; first compound 1 µM): 0.773
- relative viability (Pazopanib + Linsitinib; first compound 0.01 µM): 0.909
- relative viability (Pazopanib + Linsitinib; first compound 0.03162 µM): 0.964
- relative viability (Pazopanib + Linsitinib; first compound 0.1 µM): 1.1
- relative viability (Pazopanib + Linsitinib; first compound 0.3162 µM): 0.822
- relative viability (Pazopanib + Linsitinib; first compound 1 µM): 1.21
